Laboratory results: patent publication US4886915A, “Water soluble organic ammonium per halides” (priority 1988, dated 1989)
Values belong to the molecule of their own block, whether it stands above or below them.

Experiments:
[1] = Titration for oxidizable bromine (Standard Methods for the Examination of Water and Waste Water, Method 408A); settings: for Tit. Ox. Br2: Table 1, aqueous solution prepared from 48% HBr; for Ox. Br2 of the sample used for vapor pressure: Table 9
[2] = Vapor pressure of aqueous organic ammonium perbromides (isoteniscope); settings: for Vp: @ 26° C., Table 9; for vapor pressure of bromine: 26° C., bromine water approx. 3.5% by weight, NaBr3 and perbromides roughly 40% Br2
[3] = Perbromide closed-bottle shelf life stability at 50° C.; settings: for Initial Ox. Br2: time zero
Description: (§1) In order to determine the shelf life stability of the perbromide solutions, a series of studies were conducted to determine the percent bromine lost over time. The following tables shown below list the perbromides studied and the percent oxidizable bromine lost over time. The perbromides studied were kept in closed bottles in ambient conditions (Table 7) and at 50° C.

[4] = Perbromide closed-bottle shelf life stability at ambient temperature; settings: for Initial Ox. Br2: time zero
Description: as §1

[5] = Water solubility of perbromides; settings: for Solubility: in water, Tables 2 and 3
[6] = Table 4, concentrated (74.1% hydrobromide, #17) and anhydrous (100%, #18-20)
[7] = 50° C., time elapsed 40 (months)
[8] = ambient, time elapsed 24 months (#3 17, #11 16, #23 22 months)
[9] = ambient, time elapsed 24 months (#3 17, #11 16, #23 22 months), 1.0512e+06 min
[10] = Table 2, perbromide separated as bottom viscous liquid phase

Molecule: Hexylammonium Perbromide [compound 8]
Tit. Ox. Br2 [1]: 36.1 % by Weight

Molecule: Propylammonium Perbromide [Compound #19]
Tit. Ox. Br [1, 6]: 53.2 % by Weight

Molecule: Dimethylethanolammonium Perbromide [Compound #7, reference compound]
Vp [2]: 30 mmHg

Molecule: Bromine in H2 O [compound 34]
vapor pressure of bromine [2]: 210 mm Hg
Vp [2]: 210 mmHg
Ox. Br2 of the sample used for vapor pressure [1]: 3.5 % by Weight

Molecule: Propylammonium Perbromide [Compound #3]
Change in % Br2 [3, 7]: 2.0%
Final Ox. Br2 [3, 7]: 39.0 % by Weight
Relative Change in % Br2 ([3]; 50° C., time elapsed 40 (months), 1.752e+06 min): 4.9%
Initial Ox. Br2 ([3]; 50° C.): 41.0 % by Weight
Vp [2]: 36 mmHg
Tit. Ox. Br2 [1]: 39.3 % by Weight
Ox. Br2 of the sample used for vapor pressure [1]: 39.3 % by Weight
Change in % Br2 [4, 8]: 0.3%
Final Ox. Br2 [4, 8]: 41.0 % by Weight
Relative Change in % Br2 [4, 9]: 0.7%
Initial Ox. Br2 ([4]; ambient): 41.3 % by Weight

Molecule: Diethylethanolammonium [compound 14, reference compound]
Tit. Ox. Br [1, 10]: 42.3 % by Weight
water solubility (in words) [5]: only sparingly soluble in water
Solubility [5]: 0.1 g./100 g H2O

Molecule: Ethanolammonium Perbromide [Compound #17]
Tit. Ox. Br [1, 6]: 47.3 % by Weight

Molecule: 1,6-Hexanediammonium [compound 16]
Tit. Ox. Br ([1]; Table 3, crystalline perbromide precipitated out of aqueous solution): 51.8 % by Weight

Molecule: Tributylammonium Perbromide [compound 12, reference compound]
Vp [2]: 28 mmHg
Tit. Ox. Br [1, 10]: 36.0 % by Weight
Ox. Br2 of the sample used for vapor pressure [1]: 37.5 % by Weight

Molecule: BrBr [compound 35, Pure Bromine]
vapor pressure of bromine [2]: approximately 220 mm Hg
Vp [2]: 223 mmHg
Ox. Br2 of the sample used for vapor pressure [1]: 100 % by Weight

Molecule: Diethanolammonium Perbromide [Compound #20]
Tit. Ox. Br [1, 6]: 45.3 % by Weight
water solubility (in words) [5]: very soluble in water

Molecule: Diethanolammonium Perbromide [Compound #4]
Change in % Br2 [3, 7]: 7.0%
Final Ox. Br2 [3, 7]: 30.0 % by Weight
Initial Ox. Br2 ([3]; 50° C.): 37.0 % by Weight
Vp [2]: 49 mmHg
Change in % Br2 [4, 8]: 2.0%
Final Ox. Br2 [4, 8]: 35.0 % by Weight
Initial Ox. Br2 ([4]; ambient): 37.0 % by Weight

Other lines, results leading:

Relative Change in % Br2 ([3]; 29200 h): 3.1%
Relative Change in % Br2 ([4]; 17520 h): 2.0%
Molecule: Ethanolammonium Perbromide [Compound #21]

Change in % Br2 [3, 7]: 1.8%
Final Ox. Br2 [3, 7]: 39.0 % by Weight
Initial Ox. Br2 ([3]; 50° C.): 40.8 % by Weight
Relative Change in % Br2 ([3]; 29200 h): 4.4%
Relative Change in % Br2 ([4]; 17520 h): 4.0%
Change in % Br2 [4, 8]: 1.6%
Final Ox. Br2 [4, 8]: 38.5 % by Weight
Initial Ox. Br2 ([4]; ambient): 40.1 % by Weight
Molecule: Ethanolammonium Perbromide [Compound #1]

Vp [2]: 28 mmHg
Tit. Ox. Br2 [1]: 39.3 % by Weight
Ox. Br2 of the sample used for vapor pressure [1]: 39.3 % by Weight
Molecule: Methylethanolammonium Perbromide [compound 5]

Tit. Ox. Br2 [1]: 34.7 % by Weight
Molecule: Octylammonium Perbromide [compound 9]

Tit. Ox. Br [1, 10]: 45.1 % by Weight
Molecule: Dipropylammonium Perbromide [compound 10]

Vp [2]: 38 mmHg
Tit. Ox. Br [1, 10]: 40.9 % by Weight
Solubility [5]: 1.0 g./100 g H2O
Change in % Br2 [4, 8]: 2.1%
Final Ox. Br2 [4, 8]: 41.1 % by Weight
Relative Change in % Br2 [4, 9]: 4.9%
Initial Ox. Br2 ([4]; ambient): 43.2 % by Weight
Molecule: Dibutylammonium Perbromide [compound 11]

Tit. Ox. Br2 [1]: 37.7 % by Weight
Molecule: Ethylethanolammonium Perbromide [compound 6]

Relative Change in % Br2 ([3]; 29200 h): 2.7%
Relative Change in % Br2 ([4]; 17520 h): 2.3%
Molecule: Propylammonium Perbromide [compound 22]

Tit. Ox. Br [1, 6]: 51.8 % by Weight
Molecule: Ethanolammonium Perbromide [Compound #18]

vapor pressure of bromine [2]: 140 mm Hg
Vp [2]: 145 mmHg
Molecule: Sodium (NaBr3) [compound 33]
